Biological target: T1, P2U2 receptor (Homo sapiens, UniProt Q9BXA5)
T1 construct: The native human receptor was produced in oocytes by cloning the 500 bp 5′ truncation of the full-length kidney cDNA clone; expressed in transfected cells; host or cells: Xenopus laevis oocytes injected with capped in vitro transcribed RNA (pcDNA3 template, T7 polymerase)
T1 sequence (Q9BXA5 1-334): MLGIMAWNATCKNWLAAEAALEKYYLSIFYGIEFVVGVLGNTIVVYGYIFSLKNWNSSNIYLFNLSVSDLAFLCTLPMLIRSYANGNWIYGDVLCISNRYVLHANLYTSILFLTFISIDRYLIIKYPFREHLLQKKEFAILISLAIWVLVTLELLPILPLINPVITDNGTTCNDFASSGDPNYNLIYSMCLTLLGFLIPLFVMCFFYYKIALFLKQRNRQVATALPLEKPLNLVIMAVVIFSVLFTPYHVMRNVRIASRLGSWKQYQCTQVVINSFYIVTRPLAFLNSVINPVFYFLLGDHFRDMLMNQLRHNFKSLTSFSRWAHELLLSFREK
Experiment: Two-electrode voltage clamp of agonist-induced chloride currents in Xenopus oocytes injected with P2U2 receptor cRNA
Format: cell-based
Conditions: receptor expressed in Xenopus oocytes; for order of specificity as agonists of the P2U2 receptor: potencies close in value, a mere five-fold difference
Procedure: As indicated above, receptor activation can also be measured by means of the two-electrode voltage clamp assay. In this assay, agonist-induced inward chloride currents are measured in voltage-clamped oocytes that express the P2U2 receptor. The technique suitable for use in the instant invention is described by Julius, et al, Science 241:558-563 (1988). The native human receptor was produced in oocytes by cloning the 500 bp 5' truncation of the full-length kidney cDNA clone into the mammalian expression vector pcDNA3 (Invitrogen). Linearized DNA was used as a template for T7 polymerase (Ambion, Promega) for generation of capped in vitro transcribed mRNA following the suppliers specifications. Adult female Xenopus laevis were anesthetized in […] 3-aminobenzoic acid ethyl ester for 10 minutes and 1 or 2 ovarian lobes were removed, followed by immediate suturing of the incisions. Oocytes were defolliculated at room temperature with collagenase (2 mg/ml) in Ca^+2-free medium (OR-2) for 1-2 hr. Oocytes were stored at […] in ND-96 (96 mM sodium chloride, 2 mM potassium chloride, 1.8 mM calcium chloride, 1 mM magnesium chloride, 5 mM HEPES (N[2-hydroxyethylpiperazine-N'[2-ethanesulfonic acid) with penicillin/streptomycin and injected with 50 nl RNA (1-2 μg/μl) 18-24 h after removal of the oocytes. Before recording, injected oocytes were stored at 18° C. for 2-3 days with daily media changes. A two-electrode voltage clamp (Axon Axoclamp2B) was used to measure agonist-induced currents from individual oocytes. Electrodes were pulled to […] of 0.2-1 MΩ and filled with 3M KCl. Recordings were made at room temperature in ND96 from oocytes clamped at -70 mV using different agonist concentrations. Water-injected oocytes were used as a control.

activation of the P2U2 receptor	order of specificity as agonists of the P2U2 receptor	SMILES
activated	UTP>UDP>ADP>ATP	Nc1ncnc2c1ncn2[C@@H]1O[C@H](COP(=O)(O)OP(=O)(O)O)[C@@H](O)[C@H]1O [ADP]
activated	UTP>UDP>ADP>ATP	Nc1ncnc2c1ncn2[C@@H]1O[C@H](COP(=O)(O)OP(=O)(O)OP(=O)(O)O)[C@@H](O)[C@H]1O [ATP]
activated	UTP>UDP>ADP>ATP	O=c1ccn([C@@H]2O[C@H](COP(=O)(O)OP(=O)(O)O)[C@@H](O)[C@H]2O)c(=O)[nH]1 [UDP]
activated	UTP>UDP>ADP>ATP	O=c1ccn([C@@H]2O[C@H](COP(=O)(O)OP(=O)(O)OP(=O)(O)O)[C@@H](O)[C@H]2O)c(=O)[nH]1 [UTP]

Reference: patent US6680373B2, “P2U2 receptor antibodies” (Millennium Pharmaceuticals, Inc., priority 1995, dated 2004)
